Here are results for 4 molecules from US11597933B2, “Combination therapy of lymphoma” (The Trustees of Columbia University in the City of New York, priority 2017, dated 2023).

Data set [1] deals with R/R DLBCL or follicular lymphoma (FL). The note with it: 800 mg BID, cited from earlier work.
The conditions of data set [2]: mouse, in vivo.
Experimental: (§4) F. Serum romidepsin pharmacokinetic parameters after single injection of GSK and romidepsin over 24 hours.
Another data set relates to Pfeiffer. The experiment in a line: Cell viability assay, Pfeiffer. As to conditions: for IC50: Pfeiffer. The data set is classed as cell-based. From the text:
(§1) OCI-LY1, SU-DHL-2, SU-DHL-6, Pfeiffer, Farage, Toledo, Riva, HBL-1, Jeko-1, Z-138, H9, and HH were obtained from ATCC. OCI-LY7, OCI-LY10, SU-DHL-10 and OCI-LY3 were obtained from DSMZ. PF382, and P12 were a gift from the laboratory of Adolfo Fernando. TLOM-1 and MT-1 were obtained from Kyoto University; and MT-2 was obtained from Memorial Sloan Kettering Cancer Center. All cell lines were authenticated and screened for mycoplasma using the ATCC/Promega STR Authentication Testing Kit and Lonza MycoAlert.
(§2) Synergy was assessed by excess over bliss (EOB). […] Criteria for analyzing interactions between biologically active agents. Advances in cancer research 1981; 35:269-335.
(§3) To understand the effects of EZH2 inhibition and HDAC inhibition in cell lines with or without EZH2 dysfunction and HAT mutations, a panel of 21 lymphoma cell lines were exposed to GSK126, an EZH2 inhibitor, and romidepsin, a pan-HDAC inhibitor, as single agents. Both B-cell and TCL were selected in order to establish a range of drug sensitivity and mutational status. EZH2 status and HAT mutational status were confirmed.

Another data set has as its system P12. The data set can be described thus: Cell viability assay, P12. The data set is classed as cell-based.
Excerpt: as §1, §2, §3

The subject of the next data set is HEK 293T cells. The experiment in a line: H3K27 acetylation and methylation in HEK 293T cells. The data set is classed as cell-based. The note with it: single agent exposure in HEK 293T cells.
In a further data set the test system is HH. The experiment in a line: Cell viability assay, HH. The data set is classed as cell-based.
Excerpt: as §1, §2, §3

A further data set has as its system MT-2. The experiment in a line: Cell viability assay, MT-2. It is filed as cell-based.
Excerpt: as §1, §2, §3

A further data set has as its system Jeko-1. The data set can be described thus: Cell viability assay, Jeko-1. It is filed as cell-based.
Excerpt: as §1, §2, §3

For a further data set, the system named is Z-138. The experiment in a line: Cell viability assay, Z-138. It is filed as cell-based.
Excerpt: as §1, §2, §3

For another data set, the system named is OCI-LY10. The experiment in a line: Cell viability assay, OCI-LY10. It is filed as cell-based.
Excerpt: as §1, §2, §3

The subject of the next data set is OCI-LY1. The experiment in a line: Cell viability assay, OCI-LY1. The data set is classed as cell-based.
Excerpt: as §1, §2, §3

Another data set deals with SU-DHL-6. The data set can be described thus: Cell viability assay, SU-DHL-6. The data set is classed as cell-based.
Excerpt: as §1, §2, §3

The subject of a further data set is Riva. The data set can be described thus: Cell viability assay, Riva. The data set is classed as cell-based.
Excerpt: as §1, §2, §3

For a further data set, the system named is SU-DHL-10. The experiment in a line: Cell viability assay, SU-DHL-10. It is filed as cell-based.
Excerpt: as §1, §2, §3

For another data set, the system named is Toledo. The experiment in a line: Cell viability assay, Toledo. The data set is classed as cell-based.
Excerpt: as §1, §2, §3

The next data set relates to OCI-LY3. The data set can be described thus: Cell viability assay, OCI-LY3. The data set is classed as cell-based.
Excerpt: as §1, §2, §3

A further data set relates to OCI-LY7. The data set can be described thus: Cell viability assay, OCI-LY7. The data set is classed as cell-based.
Excerpt: as §1, §2, §3

The test system of another data set is Farage. The data set can be described thus: Cell viability assay, Farage. The data set is classed as cell-based.
Excerpt: as §1, §2, §3

The test system of another data set is PF-382. The experiment in a line: Cell viability assay, PF-382. It is filed as cell-based.
Excerpt: as §1, §2, §3

A further data set has as its system HBL-1. The experiment in a line: Cell viability assay, HBL-1. The data set is classed as cell-based.
Excerpt: as §1, §2, §3

The subject of a further data set is MT-1. The data set can be described thus: Cell viability assay, MT-1. The data set is classed as cell-based.
Excerpt: as §1, §2, §3

Another data set relates to TLOM-1. The data set can be described thus: Cell viability assay, TLOM-1. It is filed as cell-based.
Excerpt: as §1, §2, §3

In another data set the test system is H9. The data set can be described thus: Cell viability assay, H9. It is filed as cell-based.
Excerpt: as §1, §2, §3

A further data set relates to SU-DHL-2. The experiment in a line: Cell viability assay, SU-DHL-2. It is filed as cell-based.
Excerpt: as §1, §2, §3

A short description of the next data set: in vivo. The note with it: mouse, serum, ip.
Data set [3] in a line: Pharmacokinetic analysis of serum and tumor samples. The note with it: single exposure to GSK126 and romidepsin, over 24 hours.
Experimental: as §4
In another data set the test system is RbAp 46/48 (RBBP4). The experiment in a line: Acetyl-lysine immunoprecipitation and mass spectrometry. It is filed as cell-based. The note with it: SU-DHL-10 cells, acetyl-lysine antibody IP, compared to control, FDR<1.0%. How it is done: Immunoprecipitation was performed using Thermo Scientific™ Pierce™ MS-Compatible Magnetic IP Kit (#84840). Protein was incubated with EZH2 or acetylated-lysine antibody. Antibody bound proteins were eluted and run into SDS PAGE. The excised gel lane pieces were reduced, alkylated, and digested in Trypsin Gold (Promega) digestion buffer (Thermo Fischer Scientific). Condensed evaporated water was collected by brief centrifugation using microcentrifuge (Eppendorf). The gel pieces and digestion reaction were mixed with 2.5% Trifluoretic Acids (TFA, Thermo Fischer Scientific). Peptides were extracted with 70% acetonitrile (ACN/5% TFA mixture) (Thermo Fischer Scientific). The extracts were pooled and dried to completion in SpeedVac.
The concentrated peptide mix was reconstituted in a solution of 2% ACN, 2% formic acid (FA) for MS analysis. Peptides were eluted from the column using a Dionex Ultimate 3000 Nano LC system. Using Thermo Fusion Tribrid mass spectrometer (Thermo Scientific), eluted peptides were electro sprayed. Mass spectrometer-scanning functions and HPLC gradients were controlled by the Xcalibur data system (Thermo Fischer).
Tandem mass spectra from raw files were searched against uniprot_human_170129.fasta data base using the Proteome Discoverer 2.1 (Thermo Fischer). The […] protein database was downloaded as FASTA-formatted sequences from Uniprot protein database (January 2017). […]

Setting [4] is: GC-DLBCL, EZH2 Wildtype, 144 hours, read-out: IC50 GSK126.
The mark [5] stands for this setting: Homo sapiens, 72 h, read-out: IC50 Romidespin.
Where [6] appears, read: 72 h, read-out: IC50 Romidespin.

Where two headings read alike, the source gives them in different places.

Experimental for in vivo: as §4

As to `CCN(c1cc(-c2ccc(CN3CCOCC3)cc2)cc(C(=O)NCc2c(C)cc(C)[nH]c2=O)c1C)C1CCOCC1` [tazemetostat], the tolerability entry in data set [1] (preliminary results) was “well tolerated”. Besides, in data set [1], the “treatment related emergent adverse events: anemia” value was 10%, the “treatment related emergent adverse events: nausea” value was 14% and the “treatment related emergent adverse events: thrombocytopenia” value is reported as 13%.

A word on the Cmax: it is the maximum level reached in the sampled fluid or tissue. For `CC[C@H](C)n1cc(C)c2c(C(=O)NCc3c(C)cc(C)[nH]c3=O)cc(-c3ccc(N4CCNCC4)nc3)cc21` [GSK126], the Cmax in data set [2] was 3.15 µM; in [2] (ip) it was 1657.5 ± 413.6 ng/mL. For the same molecule, the “serum AUC0-last” value in data set [2] came out at 2828.57 ng·h/mL. Also, the IC50 amounted to 100 nM in the data set on Pfeiffer (GC-DLBCL, EZH2 A677G, 144 hours, read-out: IC50 GSK126); 6000 nM in the data set on P12 (P12, T-ALL, EZH2 Wildtype, 144 hours, read-out: IC50 GSK126); 4400 nM in the data set with HH (CTCL, EZH2 Wildtype, 144 hours, read-out: IC50 GSK126); 9000 nM in the data set with MT-2 (MT-2, ATLL, EZH2 Overexpression, 144 hours, read-out: IC50 GSK126); 10000 nM in the data set on Jeko-1 (Jeko-1, Mantle Cell, EZH2 Overexpression, 144 hours, read-out: IC50 GSK126); 7100 nM with Z-138 (Z-138, Mantle Cell, EZH2 Overexpression, 144 hours, read-out: IC50 GSK126). For the same molecule, the IC50 with OCI-LY10 (OCI-LY10, ABC-DLBCL, EZH2 Wildtype, 144 hours, read-out: IC50 GSK126) is 6400 nM; in the data set on OCI-LY1 (OCI-LY1, GC-DLBCL, EZH2 Y602N, Y646N, 144 hours, read-out: IC50 GSK126), 3700 nM; in the data set with SU-DHL-6 (SU-DHL-6, GC-DLBCL, EZH2 Y602N, Y646N, 144 hours, read-out: IC50 GSK126) it was 3100 nM; with Riva (Riva, ABC-DLBCL, EZH2 Wildtype, 144 hours, read-out: IC50 GSK126), 7500 nM; in the data set with SU-DHL-10 (SU-DHL-10, GC-DLBCL, EZH2 Y641F, Y646S, 144 hours, read-out: IC50 GSK126) it was 700 nM; in the data set with Toledo (setting [4]), 6000 nM. Further, the IC50 was found to be 7200 nM in the data set with OCI-LY3 (OCI-LY3, ABC-DLBCL, EZH2 Wildtype, 144 hours, read-out: IC50 GSK126); 4300 nM in the data set on OCI-LY7 (OCI-LY7, GC-DLBCL, EZH2 Wildtype, 144 hours, read-out: IC50 GSK126); 10000 nM in the data set with Farage (setting [4]); 5600 nM with PF-382 (PF-382, T-ALL, EZH2 Wildtype, 144 hours, read-out: IC50 GSK126); 4200 nM in the data set with HBL-1 (HBL-1, ABC-DLBCL, EZH2 Wildtype, 144 hours, read-out: IC50 GSK126); 4400 nM in the data set on MT-1 (MT-1, ATLL, EZH2 Overexpression, 144 hours, read-out: IC50 GSK126). Further, the IC50 with TLOM-1 (TLOM-1, ATLL, EZH2 Overexpression, 144 hours, read-out: IC50 GSK126) was determined as 1500 nM; in the data set on H9 (H9, CTCL, EZH2 Wildtype, 144 hours, read-out: IC50 GSK126), 6100 nM; in the data set with SU-DHL-2 (SU-DHL-2, ABC-DLBCL, EZH2 Wildtype, 144 hours, read-out: IC50 GSK126) it was 4400 nM. Moreover, the “status of acetylation or methylation of H3K27” value in the data set with HEK 293T cells is “did not significantly change”.

As to `C/C=C1\NC(=O)[C@H]2CSSCC/C=C/[C@H](CC(=O)N[C@H](C(C)C)C(=O)N2)OC(=O)[C@H](C(C)C)NC1=O` [romidepsin], the IC50 in the data set on Pfeiffer (setting [5]) was 6 nM; in the data set on P12 (P12, 72 h, read-out: IC50 Romidespin) it was 4.3 nM; in the data set with HH (setting [5]), 1.1 nM; with MT-2 (Homo sapiens, MT2, 72 h, read-out: IC50 Romidespin) it was 2.7 nM; in the data set with Jeko-1 (Homo sapiens, JeKo-1, 72 h, read-out: IC50 Romidespin), 1.1 nM; with Z-138 (Homo sapiens, Z-138, 72 h, read-out: IC50 Romidespin), 1.1 nM. For the same molecule, the IC50 with OCI-LY10 (Homo sapiens, OCI-Ly10, 72 h, read-out: IC50 Romidespin) is 1 nM; in the data set with OCI-LY1 (Homo sapiens, OCI-Ly1, 72 h, read-out: IC50 Romidespin) it was 2.5 nM; in the data set on SU-DHL-6 (Homo sapiens, SU-DHL-6, 72 h, read-out: IC50 Romidespin) it was 2 nM; in the data set with Riva (setting [6]), 1.5 nM; in the data set on SU-DHL-10 (Homo sapiens, SU-DHL10, 72 h, read-out: IC50 Romidespin, SU-DHL-10, GC-DLBCL, EP300 mis mut/CREBBP trunc mut, 72-hour exposure), 2.59 nM; with SU-DHL-10 (read-out: IC50 Romidespin, SU-DHL-10, GC-DLBCL, EP300 mis mut/CREBBP trunc mut, 72-hour exposure), 2.1 nM. The IC50 in the data set with Toledo (setting [5]) stood at 1 nM; with OCI-LY3 (Homo sapiens, OCI-Ly3, 72 h, read-out: IC50 Romidespin), 1.7 nM; in the data set with OCI-LY7 (Homo sapiens, OCI-Ly7, 72 h, read-out: IC50 Romidespin), 1.5 nM; in the data set with Farage (setting [6]), 1.7 nM; in the data set with PF-382 (Homo sapiens, PF-382, 72 h, read-out: IC50 Romidespin), 3.5 nM; in the data set with HBL-1 (HBL1, 72 h, read-out: IC50 Romidespin), 1 nM. Moreover, the IC50 in the data set on MT-1 (setting [6]) was 2.8 nM; in the data set with TLOM-1 (setting [6]) it was 4.3 nM; in the data set on H9 (Homo sapiens, H9, 72 h, read-out: IC50 Romidespin) it was 1.3 nM; in the data set on SU-DHL-2 (Homo sapiens, SU-DHL-2, 72 h, read-out: IC50 Romidespin), 1.3 nM. The molecule further came in with a maximum concentration (Cmax) in the data set “in vivo” of 25.1 ng/mL. Moreover, the intratumor concentration result in data set [3] is “below the level of detection”. Also, the “increase of RbAp 46/48 (RBBP4) estimated by spectral counts” value with RbAp 46/48 (RBBP4) was 2 fold.

As for `CCN(c1cc(C#CCN2CCOCC2)cc(C(=O)NCc2c(C)cc(C)[nH]c2=O)c1C)[C@H]1CC[C@H](N(C)CCOC)CC1` [EPZ011989], the “sensitivity, cell viability curve” value in the data set on Pfeiffer (Pfeiffer (GC-DLBCL), single agent) was “potent sensitivity”.
